Where a name gives a salt, the structure may show the parent alone. Read-outs that look alike come from different tables or passages of the source.
Legend:
rat synaptoneurosomes = details: cited from earlier work
[1] = tested on: GABA receptor/chloride ionophore complex; experiment: Potentiation of GABA currents by tricyclic analogs (patch clamp, cultured hippocampal neurons); assay type: cell-based, albino rat; details: 1 μM GABA, mean ± SEM (N)
Procedure: (§1) Under halothane anesthesia, 1 day old albino rat pups are sacrificed by rapid decapitation and the hippocampi are dissected and dissociated with papain (1 mg/ml in oxygenated L-15 media for 30 min at 35° C.) and mechanical trituration (18). Cells are plated on collagen coated-culture dishes at a density of 300,000 cells/ml. The growth media consists of Eagles Minimal Essential Media (MEM) supplemented with 5% fetal calf serum, 5% horse serum, 17 mM glucose, 0.4 mM glutamine, 50 U/ml penicillin and 50 μg/ml streptomycin. After three days in culture cells are treated with 10 μM cytosine arabinoside (ARA-C) to suppress glial growth. Cells are subsequently fed with fresh media once per week.
(§2) For recording purposes the growth media is replaced with a solution containing (in mM): 140 NaCl, 5 KCl, 2 CaCl2, 1 MgCl2, 10 glucose, 10 HEPES, 0.001 tetrodotoxin, pH=7.3. Neurons are studied using patch clamp recording techniques (12) with pipettes containing (in mM): 145 CsCl, 5 BAPTA, 5 NaCl, 0.5 CaCl2, 2 MgATP, 10 HEPES, pH=7.3. This CsCl intracellular solution sets the Cl^-1 equilibrium potential (Ecl) at 0 mV (i.e. symmetric transmembrane concentrations of Cl^-). This allows reliable recording of Cl^-1 currents without concern for shifts in transmembrane Cl^-1 concentration which can alter GABA responses during longer agonist exposures (1). […]

[2] = cited from earlier work
[3] = tested on: GABA receptor/chloride ionophore complex; experiment: Direct Cl^- current activation (patch clamp, cultured hippocampal neurons); assay type: cell-based, albino rat; details: numeric bound
Procedure: as §1, §2

[4] = tested on: recombinant human GABAA receptors; details: single channel recordings; cited from earlier work
[5] = tested on: GABA-induced chloride currents; details: electrophysiological experiments; cited from earlier work
picrotoxin site = details: cited from earlier work
GABAA channels = details: single channel; cited from earlier work
GABA currents = details: various CNS neurons, cited from earlier work
[6] = tested on: GABA-mediated neuronal inhibition; details: cited from earlier work
[7] = rats; cited from earlier work
[8] = two different animal models of anxiety; cited from earlier work
[9] = tested on: GABA receptor channel complex; details: cited from earlier work
GABA-gated channels = details: fluctuation analysis; cited from earlier work
GABAA receptors [10] = details: cultured hippocampal neurons; cited from earlier work
[11] = tested on: GABA-mediated inhibitory synaptic responses; details: olfactory cortical slices; cited from earlier work
benzodiazepine receptors = details: several studies; cited from earlier work
GABAA receptors [12] = details: cited from earlier work
[13] = in vivo; cited from earlier work

CC(=O)[C@H]1CC[C@H]2[C@@H]3CC[C@H]4C[C@H](O)CC[C@]4(C)[C@H]3CC[C@]12C [Example 3α-OH-DHP, 3α-hydroxy-5α-pregnan-20-one]
potentiation of muscimol-stimulated chloride uptake (rat synaptoneurosomes): potentiators of muscimol-stimulated chloride uptake | Potentiation of GABA currents, 0.1 μM ([1]; 0.1 μM compound): 110 ± 5% of control response to | Potentiation of GABA currents, 1.0 μM ([1]; 1.0 μM compound): 195 ±16% of control response to | activity in vivo as steroid anesthetics [2]: active in vivo as steroid anesthetics | Concentration for Direct Cl^- Current Activation [3]: > 1 µM | channel open times and burst lengths / opening frequency [4]: increases the frequency of channel opening without altering the open times | potentiation of GABA-induced chloride currents [5]: potentiators of GABA-induced chloride currents

CC(=O)C1CCC2C3CC=C4CC(OS(=O)(=O)O)CCC4(C)C3CCC12C (stereo not shown) [pregnenolone sulfate]
TBPS binding (picrotoxin site): inhibits TBPS binding at the picrotoxin site | opening frequency of the channels (GABAA channels): decreasing the opening frequency of the channels | GABA currents (GABA currents): inhibit GABA-induced chloride currents | GABA currents (GABA currents; listed as pregnenolone sulfate (PS)): inhibit GABA currents

C[C@]12CC[C@@H](O)C[C@@H]1CC[C@@H]1[C@@H]2CC[C@]2(C)[C@@H](C(=O)CO)CC[C@@H]12 [THDOC, 5α-pregnane-3α, 21-diol-20-one]
GABA-mediated neuronal inhibition [6]: augment GABA-mediated neuronal inhibition | sleep induction and nonREM sleep [7]: induce sleep and increase nonREM sleep | anxiolytic and sedative activity [8]: both anxiolytic and sedative activity

C[C@]12CCC(=O)C=C1CC[C@@H]1[C@@H]2[C@@H](O)C[C@@]2(C)[C@H]1CC[C@]2(O)C(=O)CO [Cortisol]
GABA-induced chloride currents ([9]; nanomolar concentrations): inhibits these same currents | GABA-induced chloride currents ([9]; picomolar concentrations): augments GABA-induced chloride currents

CC(=O)[C@H]1CC[C@H]2[C@@H]3CC[C@H]4C[C@H](O)CC[C@]4(C)[C@H]3C(=O)C[C@]12C [alphaxalone]
burst length of GABA-gated channels (GABA-gated channels): significantly prolongs the burst length of GABA-gated channels | single channel conductance (GABA-gated channels): without changing the single channel conductance | peak IPSC amplitude or rise time (GABAA receptors [10]): without change in peak IPSC amplitude or rise time | prolongation of IPSC decay (GABAA receptors [10]): 5-8 fold | time course of GABA-mediated inhibitory synaptic responses [11]: prolongs the time course of GABA-mediated inhibitory synaptic responses

CCOC(=O)c1ncn2c1CN(C)C(=O)c1cc(F)ccc1-2 [R015-1788 (flumazenil)]
effect on steroid responses (benzodiazepine receptors): failed to find an effect

picrotoxin
opening frequency of the channels (GABAA channels): decreasing the opening frequency of the channels

C[C@]12CC[C@H](OS(=O)(=O)O)CC1=CC[C@@H]1[C@@H]2CC[C@]2(C)C(=O)CC[C@@H]12 [dehydroepiandrosterone sulfate (DHEAS), dehydroepiandrosterone sulfate]
TBPS binding (picrotoxin site): not DHEAS | GABA currents (GABA currents): inhibit GABA currents

CC(=O)[C@H]1CC[C@H]2[C@@H]3CC[C@@H]4C[C@H](O)CC[C@]4(C)[C@H]3CC[C@]12C [3α-hydroxy-5β-pregnan-20-one]
potentiation of muscimol-stimulated chloride uptake (rat synaptoneurosomes): potentiators of muscimol-stimulated chloride uptake | activity in vivo as steroid anesthetics [2]: active in vivo as steroid anesthetics | potentiation of GABA-induced chloride currents [5]: potentiators of GABA-induced chloride currents

CCCC(C)C1(CC)C(=O)NC(=O)NC1=O (stereo not shown) [pentobarbital]
channel open times and burst lengths / opening frequency [4]: prolongs channel open times and burst lengths

CN1CCc2cc3c(cc2[C@H]1[C@@H]1OC(=O)c2c1ccc1c2OCO1)OCO3 [bicuculline]
block of steroid gated currents (GABAA receptors [12]): blocked

CC(=O)[C@H]1CC[C@H]2[C@@H]3CCC4=CC(=O)CC[C@]4(C)[C@H]3CC[C@]12C [progesterone]
usefulness for treating premenstrual syndrome [13]: often useful

Reference: patent US5206415A, “Tricyclic steroid analogs” (priority 1991, dated 1993)
